Assay results reported in patent publication US20130338367A1, “PYRAZOLE DERIVATIVES AND PESTICIDES” (Nissan Chemical Industries, Ltd., priority 2011, published 2013).
Where a name gives a salt, the structure may show the parent alone.

Legend:
[1] = tested on: Myzus persicae; assay: Soil Irrigation Test on Myzus persicae; type: in vivo; details: 144 h, 100 ppm solution, 10 ml soil irrigation of cabbage seedlings, greenhouse, 6 days after release of insects
Protocol: 10% emulsifiable concentrates of compounds of the present invention were diluted with tap water to obtain 100 ppm solutions. The soil around the bases of cabbage seedlings (at the 2.5 true leaf stage) planted in plastic cups was irrigated with 10 ml of the solutions, and the cups were placed in a greenhouse. One day after the irrigation, adults of Myzus persicae were released at a ratio of 20 insects per seedling, and the seedlings were incubated in the greenhouse. 6 Days after the release of the insects, living insects were counted, and the control value was calculated from the following equation.
Control value (%)={1−(Cb×Tai)/(Cai×Tb)}×100
Cb: the number of insects in a non-treated area before treatment
Cai: the final number of living insects in a non-treated area
Tb: the number of insects in a treated area before treatment
Tai: the final number of living insects in a treated area

[2] = tested on: Nilaparvata lugens; assay: Insecticidal Test on Nilaparvata lugens; type: in vivo; details: 144 h, 500 ppm solution, rice sheaths soaked, 2nd-instar nymphs, 25° C., 6 days after, read-out: mortality (%)
Protocol: 10% emulsifiable concentrates (or 10% wettable powders) of compounds of the present invention were diluted with water containing a spreader to obtain 500 ppm solutions. Rice sheaths were soaked in the solutions for about 10 seconds, dried in air and put in test tubes. In each tube, five 2nd-instar nymphs of Nilaparvata lugens were released, and the tubes were capped with sponge and placed in an incubator at 25° C. 6 Days after, dead insects were counted, and the mortality (%) (the number of dead insects÷the number of released insects×100) was calculated. The test was carried out in duplicate.

[3] = tested on: Bemisia argentifolii; assay: Insecticidal Test on Bemisia argentifolii; type: in vivo; details: 120 h, 500 ppm solution sprayed on kidney bean leaves, adults, 25° C., 5 days after, read-out: mortality
Protocol: In styrol cups having an inner diameter of 7 cm, wet filter paper was laid, and kidney bean leaves cut to 3 cm were laid on the paper. 10% emulsifiable concentrates (or 10% wettable powders) of compounds of the present invention were diluted with water containing a spreader to obtain 500 ppm solutions. 2.5 ml of the solutions were sprayed from a rotary spray tower into the styrol cups (2.5 mg/cm^2). The leaves were dried in air, and adults of Bemisia argentifolii were released in the cups. The cups were closed and placed in an incubator at 25° C. 5 Days after, dead insects were counted, and the mortality was calculated by using the same equation as in Test Example 1. The test was carried out in duplicate.

[4] = tested on: Myzus persicae; assay: Insecticidal Test on Myzus persicae; type: in vivo; details: foliar, 144 h, 500 ppm solution sprayed, apterous adults on leaf discs, 25° C., 6 days after, read-out: mortality
Protocol: (§1) Wet absorbent cotton was laid on glass dishes having an inner diameter of 3 cm, and covered with leaves of Canarium album cut into circles of the same diameter, and 4 apterous adults of Myzus persicae were released. After a day, 10% emulsifiable concentrates (or 10% wettable powders) of compounds of the present invention were diluted with water containing a spreader to obtain 500 ppm solutions, and the solution were sprayed from a rotary spray tower (2.5 mg/cm^2). The dishes were covered with lids and placed in an incubator at 25° C. 6 Days after, dead insects were counted, and the mortality was calculated by using the same equation as in Test Example 1. The test was carried out in duplicate.

[5] = tested on: Aphis gossypii; assay: Insecticidal Test on Aphis gossypii; type: in vivo; details: foliar, 144 h, 500 ppm solution sprayed, apterous adults on cucumber leaf discs, 25° C., 6 days after, read-out: mortality
Protocol: as §1, with “cucumber” for “Canarium album”, “Aphis gossypii” for “Myzus persicae”

| melting point | SMILES | pest or weed control at 100 ppm [1] | mortality at 500 ppm [2] | mortality at 500 ppm [3] | mortality at 500 ppm [4] | mortality at 500 ppm [5] |
| --- | --- | --- | --- | --- | --- | --- |
| 113 to 116 °C | CCNc1cn(-c2cccnc2)nc1C (as salt: hydrochloride) [B-002, N-ethyl-3-methyl-1-(pyridin-3-yl)-1H-pyrazole-4-amine] |  |  |  |  |  |
| 72 to 78 °C | Clc1nn(-c2cccnc2)cc1NCC1CC1 [B-014, 3-chloro-N-(cyclopropylmethyl)-1-(pyridin-3-yl)-1H-pyrazole-4-amine] |  |  |  |  |  |
| 140 to 150 °C | CS(=O)(=O)Nc1cnn(-c2cccnc2)c1 [2-001] |  |  |  |  |  |

The next lines start with the compound.

| SMILES | melting point | pest or weed control at 100 ppm [1] | mortality at 500 ppm [2] | mortality at 500 ppm [3] | mortality at 500 ppm [4] | mortality at 500 ppm [5] |
| --- | --- | --- | --- | --- | --- | --- |
| CCSC(C)C(=O)N(CC)c1cn(-c2cccnc2)nc1Cl (stereo not shown) [1-118, N-{3-chloro-1-(pyridin-3-yl)-1H-pyrazol-4-yl}-N-ethyl-2-(ethylthio)propanamide] | 65 to 66 °C | ≥ 90% |  |  |  |  |
| CCN(C(=O)[C@H](C)CSC)c1cn(-c2cccnc2)nc1Cl [1-048(S)-(−), (S)-(−)-N-{3-chloro-1-(pyridin-3-yl)-1H-pyrazol-4-yl}-N-ethyl-2-methyl-3-(methylthio)propanamide] |  | ≥ 90% | ≥ 90% | ≥ 90% | ≥ 90% | ≥ 90% |
| O=C(Nc1cnn(-c2cccnc2)c1)C(Br)CCCBr (stereo not shown) [1-025, 2,5-dibromo-N-{1-(pyridin-3-yl)-1H-pyrazol-4-yl}pentanamide] | 114 to 115 °C |  |  |  |  |  |
| CSCC(=O)N(C)C(C)=Nc1cn(-c2cccnc2)nc1C [3-004, N-methyl-N-[1-{3-methyl-1-(pyridin-3-yl)-1H-pyrazol-4-ylimino}ethyl]-2-(methylthio)acetamide] |  | ≥ 90% | ≥ 90% | ≥ 90% |  |  |
| CN(C(=O)CCS(C)(=O)=O)c1cn(-c2cccnc2)nc1Cl [1-052, N-{3-chloro-1-(pyridin-3-yl)-1H-pyrazol-4-yl}-N-methyl-3-(methylsulfonyl)propanamide] | 90 to 91 °C | ≥ 90% |  |  |  |  |
| CCSC(C)C(=S)Nc1cn(-c2cccnc2)nc1Cl (stereo not shown) [1-353, N-{3-chloro-1-(pyridin-3-yl)-1H-pyrazol-4-yl}-2-(ethylthio)propanethioamide] |  | ≥ 90% | ≥ 90% |  |  |  |
| Cc1nn(-c2cccnc2)cc1NC(=O)OC(C)(C)C [1-011, tert-butyl 3-methyl-1-(pyridin-3-yl)-1H-pyrazol-4-ylcarbamate] |  | ≥ 90% | ≥ 90% | ≥ 90% | ≥ 90% | ≥ 90% |
| CCN(C(=O)C(CSC)OC)c1cn(-c2cccnc2)nc1Cl (stereo not shown) [1-160, N-{3-chloro-1-(pyridin-3-yl)-1H-pyrazol-4-yl}-N-ethyl-2-methoxy-3-(methylthio)propanamide] |  | ≥ 90% |  |  |  |  |
| CSCC(C)(C)C(=O)N(C)c1cn(-c2cccnc2)nc1Cl [1-134, N-{3-chloro-1-(pyridin-3-yl)-1H-pyrazol-4-yl}-N,2,2-trimethyl-3-(methylthio)propanamide] |  | ≥ 90% | ≥ 90% | ≥ 90% | ≥ 90% | ≥ 90% |
| CSCC1CCN(c2cn(-c3cccnc3)nc2Cl)C1=O (stereo not shown) [1-141, 1-{3-chloro-1-(pyridin-3-yl)-1H-pyrazol-4-yl}-3-(methylthiomethyl)pyrrolidin-2-one] | 83 to 84 °C |  |  |  |  |  |
| O=C1CCCCN1c1cnn(-c2cccnc2)c1 [1-034, 1-{1-(pyridin-3-yl)-1H-pyrazol-4-yl}piperidin-2-one] | 123 to 124 °C |  |  |  |  |  |
